Data published in US20120122843A1, “Compounds and Their Use for Treatment of Amyloid Beta-Related Diseases” (ASTRAZENECA AB, priority 2010, published 2012).

Assays:
Aβ42 = Aβ42 release from HEK cells stably expressing APPswe (MSD electrochemiluminescence); assay type: cell-based, Human; settings: 4-6 h incubation with test compound, Aβ42 secreted to cell medium
Protocol: The level of activity of the compounds on Aβ formation was tested using the following method:
Compounds were diluted in 100% DMSO and stored at […] prior to use. Human Embryonic Kidney (HEK) cell line stably expressing APP with the Swedish mutation (APPswe) were cultured using Dulbecco's Modified Eagles medium (DMEM) supplied with […] glucose, Na-pyruvate and GlutaMAX with 10% FBS, 100 U/ml penicillin-streptomycin (PEST) respectively, 1× non-essential amino acids (NEAA), […] Hepes, 100 μg/ml Zeocine. Cells at about 80% confluence were washed with PBS, detached from culture flasks using 1× Trypsin/EDTA diluted in PBS, re-suspended in cell media and plated in 384-well poly-d-lysine coated cell culture plates at about 10000-15000 cells/well, in 25 μL cell media. Optionally, cryo-preserved cells (frozen and stored at −140° C. in 90% cell media and 10% DMSO) were thawed, washed and plated as above. Next the cells were incubated for 15-24 h at 37° C. and 5% CO2, after which cell medium was changed. Fresh medium containing test compound diluted ×200 from prepared compound plate was added to the cells before further incubation for 4-6 hours at 37° C. and 5% CO2. After incubation with test compound the amount of Aβ peptides, including Aβ42, Aβ40, Aβ39, Aβ38 and Aβ37, as well as total Aβ levels, secreted to cell medium was analyzed using the electrochemiluminescence assay technology from Meso Scale Discovery (MSD), in combination with specific antibodies raised against the different Aβ peptides. Aβ42, Aβ40 and Aβ38 antibodies were purchased from MSD and Aβ37 and Aβ39 were made in house. Total Aβ was measured using a combination of 6E10 and 4G8 anti Aβ antibodies from MSD. Potential cytotoxic effects of the compounds were usually assayed by measuring the ATP content (ViaLight) from cell lysate.

Notch = experiment: Release and translocation of Notch intracellular domain into the nucleus, HEK/AENotch cells (NICD immunostaining, ImageXpress); assay type: cell-based, Human; settings: 3 μM Lactacystin, 4-6 h incubation, nucleus/cytosol NICD fluorescence ratio
Protocol: The level of activity of the compounds on release and translocation of Notch intracellular domain into the cell nucleus was tested using the following method:
Compounds were diluted in 100% DMSO and stored at […] prior to use. Human Embryonic Kidney cell line overexpressing Notchl-E-human-myc construct (referred to as HEK/AENotch) were cultured in T75 cm^2 or T225 cm^2 cell culture flasks using Dulbecco's Modified Eagles medium (DMEM) supplemented with […] glucose, Na-pyruvate and GlutaMAX with 10% FBS, 100 U/ml penicillin-streptomycin (PEST) respectively, 1× non-essential amino acids (NEAA), […] Hepes and 100 μg/ml Hygromycin. Cells at about 80% confluence were washed with PBS, detached from the flask bottom using 1× Trypsin/EDTA diluted in PBS, re-suspended in cell media and plated in 384-well plates at about 10000 cells/well, in 25 μL cell media. Optionally, cryo-preserved cells (frozen and stored at −140° C. in 90% cell media and 10% DMSO) were thawed, washed and plated as above. Next the cells were incubated for 15-24 h at 37° C. and 5% CO2, after which cell medium was replaced with fresh medium containing 3 μM Lactacystin and test compound diluted ×200 from prepared compound plate giving 0.5% final DMSO concentration, and the highest compound concentration typically 25 μM. Cells were then incubated 4-6 h with test compound before being fixed, washed and immunostained with NICD antibody (rabbit Notch 1 (C-20)). Image acquisition of cytosolic/membrane and nuclear fluorescence as well as subsequent analysis of the nucleus and cytosolic fluorescence ratio was carried out using ImageXpress. Potential cytotoxic effects of the compounds were usually assayed by analysis of nucleus area or cell number.

[1] = Homo sapiens, HEK293, HEK cells expressing APPswe

Compound | IC50 (Aβ42; HEK cells expressing APPswe) [nM] | IC50 (Aβ42; [1]) [nM] | IC50 (Notch) [nM] | IC50 (Notch; Homo sapiens) [nM]
COc1nc(Nc2ccc3c(n2)OC(c2nc(C)cs2)C(C)N(C)C3)ccc1-c1cnn(C)c1 (single isomer, unassigned) [Example 30, N-(6-Methoxy-5-(1-methyl-1H-pyrazol-4-yl)pyridin-2-yl)-3,4-dimethyl-2-(4-methylthiazol-2-yl)-2,3,4,5-tetrahydropyrido[3,2-f][1,4]oxazepin-8-amine] | 7 |  | > 25000 | 
COc1nc(Nc2ccc3c(n2)OC(CC(F)(F)F)CN(C)C3C)ccc1-c1cnn(C)c1 (single isomer, unassigned) [Example 35, N-(6-Methoxy-5-(1-methyl-1H-pyrazol-4-yl)pyridin-2-yl)-4,5-dimethyl-2-(2,2,2-trifluoroethyl)-2,3,4,5-tetrahydropyrido[3,2-f][1,4]oxazepin-8-amine] | 12 |  | > 25000 | 
COc1nc(Nc2cc(C)c3c(n2)OC(C2CC2)CN(C)C3)ccc1-c1cnn(C)c1 (centres unmarked) [Example 13, 2-Cyclopropyl-N-(6-methoxy-5-(1-methyl-1H-pyrazol-4-yl)pyridin-2-yl)-4,6-dimethyl-2,3,4,5-tetrahydropyrido[3,2-f][1,4]oxazepin-8-amine] |  | 48 |  | > 5000
COc1nc(Nc2cc(C)c3c(n2)OC(c2nc(C)cs2)CN(C)C3)ccc1-c1cnn(C)c1 (single isomer, unassigned) [Example 22, N-(6-Methoxy-5-(1-methyl-1H-pyrazol-4-yl)pyridin-2-yl)-4,6-dimethyl-2-(4-methylthiazol-2-yl)-2,3,4,5-tetrahydropyrido[3,2-f][1,4]oxazepin-8-amine] | 10 |  |  | 1680
COc1nc(Nc2ccc3c(n2)OC(CC(F)(F)F)CN(C)C3C)ccc1-c1cnn(C)c1 (single isomer, unassigned) [Example 36, N-(6-Methoxy-5-(1-methyl-1H-pyrazol-4-yl)pyridin-2-yl)-4,5-dimethyl-2-(2,2,2-trifluoroethyl)-2,3,4,5-tetrahydropyrido[3,2-f][1,4]oxazepin-8-amine] | 12 |  | > 25000 | 
COc1nc(Nc2ccc3c(n2)OC(C2CC2)CN(C)C3C)ccc1-c1cnn(C)c1 (single isomer, unassigned) [Example 18, 2-Cyclopropyl-N-(6-methoxy-5-(1-methyl-1H-pyrazol-4-yl)pyridin-2-yl)-4,5-dimethyl-2,3,4,5-tetrahydropyrido[3,2-f][1,4]oxazepin-8-amine] | 37 |  | > 7900 | 
COc1nc(Nc2cc(C)c3c(n2)OC(CC(F)(F)F)CN(C)C3)ccc1-c1cnn(C)c1 (centres unmarked) [Example 2, N-(6-Methoxy-5-(1-methyl-1H-pyrazol-4-yl)pyridin-2-yl)-4,6-dimethyl-2-(2,2,2-trifluoroethyl)-2,3,4,5-tetrahydropyrido[3,2-f][1,4]oxazepin-8-amine] |  | 23 |  | 1140
Cc1cn(-c2ccc(Nc3cc(C)c4c(n3)OC(CC(F)(F)F)CN(C)C4)nc2)cn1 (centres unmarked) [Example 1, 4,6-Dimethyl-N-(5-(4-methyl-1H-imidazol-1-yl)pyridin-2-yl)-2-(2,2,2-trifluoroethyl)-2,3,4,5-tetrahydropyrido[3,2-f][1,4]oxazepin-8-amine] |  | 225 |  | > 50000
COc1nc(Nc2ccc3c(n2)OC(CC(F)(F)F)CN(C)C3)ccc1-c1cnn(C)c1 (centres unmarked) [Example 3, N-(6-Methoxy-5-(1-methyl-1H-pyrazol-4-yl)pyridin-2-yl)-4-methyl-2-(2,2,2-trifluoroethyl)-2,3,4,5-tetrahydropyrido[3,2-f][1,4]oxazepin-8-amine] |  | 17 |  | > 25000
COc1nc(Nc2ccc3c(n2)OC(c2ncc(C)s2)CN(C)C3)ccc1-c1cnn(C)c1 (centres unmarked) [Example 39, N-(6-Methoxy-5-(1-methyl-1H-pyrazol-4-yl)pyridin-2-yl)-4-methyl-2-(5-methylthiazol-2-yl)-2,3,4,5-tetrahydropyrido[3,2-f][1,4]oxazepin-8-amine] |  | 28 |  | > 25000
COc1nc(Nc2ccc3c(n2)OC(c2nc(C)cs2)C(C)N(C)C3)ccc1-c1cnn(C)c1 (single isomer, unassigned) [Example 29, N-(6-Methoxy-5-(1-methyl-1H-pyrazol-4-yl)pyridin-2-yl)-3,4-dimethyl-2-(4-methylthiazol-2-yl)-2,3,4,5-tetrahydropyrido[3,2-f][1,4]oxazepin-8-amine] | 68 |  | 5000 | 

Further lines, with some results ahead:

IC50 (Aβ42; HEK cells expressing APPswe) [nM] | IC50 (Aβ42; [1]) [nM] | Compound | IC50 (Notch) [nM] | IC50 (Notch; Homo sapiens) [nM]
 | 9 | COc1nc(Nc2ccc3c(n2)OC(c2ncc(C)s2)CN(C)C3)ccc1-n1cnc(C)c1 (centres unmarked) [Example 40, N-(6-Methoxy-5-(4-methyl-1H-imidazol-1-yl)pyridin-2-yl)-4-methyl-2-(5-methylthiazol-2-yl)-2,3,4,5-tetrahydropyrido[3,2-f][1,4]oxazepin-8-amine] |  | 3640
17 |  | COc1nc(Nc2ccc3c(n2)OC(c2nc(C)cs2)C(C)N(C)C3)ccc1-n1cnc(C)c1 (single isomer, unassigned; (+)) [Example 60, (+)-N-(6-Methoxy-5-(4-methyl-1H-imidazol-1-yl)pyridin-2-yl)-3,4-dimethyl-2-(4-methylthiazol-2-yl)-2,3,4,5-tetrahydropyrido[3,2-f][1,4]oxazepin-8-amine] | > 25000 | 
 | 44 | Cc1cn(-c2ccc(Nc3ccc4c(n3)O[C@H](c3nc(C)cs3)CN(C)C4)nc2C#N)cn1 [Example 55, 3-(4-Methylimidazol-1-yl)-6-[[(2S)-4-methyl-2-(4-methylthiazol-2-yl)-3,5-dihydro-2H-pyrido[3,2-f][1,4]oxazepin-8-yl]amino]pyridine-2-carbonitrile] |  | > 25000
 | 98 | COc1nc(Nc2ccc3c(n2)O[C@H](c2ccccc2)CN(C)C3)ccc1-c1cn[nH]c1 [Example 56, (2R)—N-[6-Methoxy-5-(1H-pyrazol-4-yl)-2-pyridyl]-4-methyl-2-phenyl-3,5-dihydro-2H-pyrido[3,2-f][1,4]oxazepin-8-amine] |  | > 25000
7 |  | COc1nc(Nc2ccc3c(n2)OC(c2nc(C)cs2)C(C)N(C)C3)ccc1-n1cnc(C)c1 (single isomer, unassigned; (-)) [Example 59, (−)-N-(6-Methoxy-5-(4-methyl-1H-imidazol-1-yl)pyridin-2-yl)-3,4-dimethyl-2-(4-methylthiazol-2-yl)-2,3,4,5-tetrahydropyrido[3,2-f][1,4]oxazepin-8-amine] |  | > 25000
 | 18 | COc1nc(Nc2ccc3c(n2)O[C@H](c2nc(C)cs2)CN(C)C3)c(F)cc1-c1cnn(C)c1 [Example 54, (2S)—N-[3-Fluoro-6-methoxy-5-(1-methylpyrazol-4-yl)-2-pyridyl]-4-methyl-2-(4-methylthiazol-2-yl)-3,5-dihydro-2H-pyrido[3,2-f][1,4]oxazepin-8-amine] |  | 6490
 | 4 | COc1nc(Nc2ccc3c(n2)OC(CC(F)(F)F)CN(C)C3)ccc1-c1cnc(C)o1 (centres unmarked) [Example 47, N-[6-Methoxy-5-(2-methyloxazol-5-yl)-2-pyridyl]-4-methyl-2-(2,2,2-trifluoroethyl)-3,5-dihydro-2H-pyrido[3,2-f][1,4]oxazepin-8-amine] |  | > 25000
 | 60 | COc1nc(Nc2ccc3c(n2)OC(c2ccc(C)cn2)CN(C)C3)ccc1-c1cnn(C)c1 (centres unmarked) [Example 41, N-(6-Methoxy-5-(1-methyl-1H-pyrazol-4-yl)pyridin-2-yl)-4-methyl-2-(5-methylpyridin-2-yl)-2,3,4,5-tetrahydropyrido[3,2-f][1,4]oxazepin-8-amine] |  | > 25000
